The source of these data is ChEMBL document CHEMBL5465560, “Selectivity Literature for EUbOPEN Chemogenomic Library” (2024).

Test [1] has as its target T1, Phosphatidylinositol 3-kinase C2 domain-containing subunit gamma (Homo sapiens) (UniProt O75747).
T1 sequence (whole entry): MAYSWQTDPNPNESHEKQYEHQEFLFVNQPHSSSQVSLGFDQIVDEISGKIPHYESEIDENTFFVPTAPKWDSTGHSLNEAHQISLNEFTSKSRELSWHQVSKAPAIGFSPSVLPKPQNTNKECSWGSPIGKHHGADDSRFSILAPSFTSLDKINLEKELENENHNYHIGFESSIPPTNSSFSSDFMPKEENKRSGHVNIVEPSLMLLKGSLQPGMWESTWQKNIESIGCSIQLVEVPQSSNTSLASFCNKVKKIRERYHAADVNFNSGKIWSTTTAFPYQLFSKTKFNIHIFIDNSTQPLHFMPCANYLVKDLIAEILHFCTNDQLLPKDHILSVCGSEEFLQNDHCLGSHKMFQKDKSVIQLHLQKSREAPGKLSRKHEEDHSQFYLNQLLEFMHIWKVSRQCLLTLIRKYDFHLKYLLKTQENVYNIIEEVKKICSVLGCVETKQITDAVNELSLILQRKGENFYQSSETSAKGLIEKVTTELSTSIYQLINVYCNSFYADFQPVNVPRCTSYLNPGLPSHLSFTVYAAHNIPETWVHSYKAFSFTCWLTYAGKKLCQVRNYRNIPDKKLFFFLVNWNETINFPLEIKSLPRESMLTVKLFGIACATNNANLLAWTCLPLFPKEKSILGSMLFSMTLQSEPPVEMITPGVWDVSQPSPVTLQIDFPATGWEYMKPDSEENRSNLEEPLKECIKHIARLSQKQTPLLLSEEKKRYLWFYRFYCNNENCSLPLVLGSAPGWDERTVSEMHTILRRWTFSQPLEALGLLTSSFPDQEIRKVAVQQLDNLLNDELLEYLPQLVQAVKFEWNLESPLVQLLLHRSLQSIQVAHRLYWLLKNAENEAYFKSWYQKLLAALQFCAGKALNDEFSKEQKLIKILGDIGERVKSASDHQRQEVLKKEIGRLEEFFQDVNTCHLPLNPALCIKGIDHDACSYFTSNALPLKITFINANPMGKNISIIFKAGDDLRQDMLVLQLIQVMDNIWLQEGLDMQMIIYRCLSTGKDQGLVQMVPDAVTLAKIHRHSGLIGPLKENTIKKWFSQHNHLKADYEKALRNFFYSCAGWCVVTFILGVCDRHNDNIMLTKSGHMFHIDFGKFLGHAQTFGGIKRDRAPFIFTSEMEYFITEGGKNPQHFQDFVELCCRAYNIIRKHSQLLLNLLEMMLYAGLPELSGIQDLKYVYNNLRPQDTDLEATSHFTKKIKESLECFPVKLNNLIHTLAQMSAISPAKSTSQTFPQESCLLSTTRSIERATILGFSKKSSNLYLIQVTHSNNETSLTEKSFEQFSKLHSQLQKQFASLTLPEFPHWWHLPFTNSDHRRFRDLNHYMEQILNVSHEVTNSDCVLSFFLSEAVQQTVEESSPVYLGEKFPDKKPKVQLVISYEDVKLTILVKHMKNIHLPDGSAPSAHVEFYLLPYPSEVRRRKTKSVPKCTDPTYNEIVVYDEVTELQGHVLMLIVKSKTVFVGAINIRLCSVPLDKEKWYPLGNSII
Description: Selectivity interaction (KinomeScan (DiscoverX)) EUB0000607a PIK3C2G. Particulars: at 10 µM.

Test [2] deals with Casein kinase II subunit alpha (Homo sapiens, UniProt P68400). Description: Selectivity interaction (KinomeScan (DiscoverX)) EUB0000666a CSNK2A1. Particulars: at 10 µM.
Sequence of Casein kinase II subunit alpha (P68400 whole entry, looked up): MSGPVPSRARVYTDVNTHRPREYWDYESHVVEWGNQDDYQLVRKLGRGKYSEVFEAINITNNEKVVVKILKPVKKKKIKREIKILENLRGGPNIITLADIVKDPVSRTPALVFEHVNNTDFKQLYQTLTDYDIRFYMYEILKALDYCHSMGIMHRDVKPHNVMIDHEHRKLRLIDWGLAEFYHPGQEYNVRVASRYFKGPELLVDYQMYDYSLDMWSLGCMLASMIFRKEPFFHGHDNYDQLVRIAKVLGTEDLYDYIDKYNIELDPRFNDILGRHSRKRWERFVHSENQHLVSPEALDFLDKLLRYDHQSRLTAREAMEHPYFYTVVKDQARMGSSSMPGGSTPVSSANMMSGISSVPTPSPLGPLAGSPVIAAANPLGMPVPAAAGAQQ
The target of test [3] is Histone-lysine N-methyltransferase, H3 lysine-79 specific (Homo sapiens, UniProt Q8TEK3). Description: Selectivity interaction (Methyltransferase screen (Scintillation proximity assays)) EUB0000255b DOT1L. (SPA uses beads or plates that emit light when radiolabelled molecules are held near them.)
Sequence of Histone-lysine N-methyltransferase, H3 lysine-79 specific (Q8TEK3 whole entry, looked up): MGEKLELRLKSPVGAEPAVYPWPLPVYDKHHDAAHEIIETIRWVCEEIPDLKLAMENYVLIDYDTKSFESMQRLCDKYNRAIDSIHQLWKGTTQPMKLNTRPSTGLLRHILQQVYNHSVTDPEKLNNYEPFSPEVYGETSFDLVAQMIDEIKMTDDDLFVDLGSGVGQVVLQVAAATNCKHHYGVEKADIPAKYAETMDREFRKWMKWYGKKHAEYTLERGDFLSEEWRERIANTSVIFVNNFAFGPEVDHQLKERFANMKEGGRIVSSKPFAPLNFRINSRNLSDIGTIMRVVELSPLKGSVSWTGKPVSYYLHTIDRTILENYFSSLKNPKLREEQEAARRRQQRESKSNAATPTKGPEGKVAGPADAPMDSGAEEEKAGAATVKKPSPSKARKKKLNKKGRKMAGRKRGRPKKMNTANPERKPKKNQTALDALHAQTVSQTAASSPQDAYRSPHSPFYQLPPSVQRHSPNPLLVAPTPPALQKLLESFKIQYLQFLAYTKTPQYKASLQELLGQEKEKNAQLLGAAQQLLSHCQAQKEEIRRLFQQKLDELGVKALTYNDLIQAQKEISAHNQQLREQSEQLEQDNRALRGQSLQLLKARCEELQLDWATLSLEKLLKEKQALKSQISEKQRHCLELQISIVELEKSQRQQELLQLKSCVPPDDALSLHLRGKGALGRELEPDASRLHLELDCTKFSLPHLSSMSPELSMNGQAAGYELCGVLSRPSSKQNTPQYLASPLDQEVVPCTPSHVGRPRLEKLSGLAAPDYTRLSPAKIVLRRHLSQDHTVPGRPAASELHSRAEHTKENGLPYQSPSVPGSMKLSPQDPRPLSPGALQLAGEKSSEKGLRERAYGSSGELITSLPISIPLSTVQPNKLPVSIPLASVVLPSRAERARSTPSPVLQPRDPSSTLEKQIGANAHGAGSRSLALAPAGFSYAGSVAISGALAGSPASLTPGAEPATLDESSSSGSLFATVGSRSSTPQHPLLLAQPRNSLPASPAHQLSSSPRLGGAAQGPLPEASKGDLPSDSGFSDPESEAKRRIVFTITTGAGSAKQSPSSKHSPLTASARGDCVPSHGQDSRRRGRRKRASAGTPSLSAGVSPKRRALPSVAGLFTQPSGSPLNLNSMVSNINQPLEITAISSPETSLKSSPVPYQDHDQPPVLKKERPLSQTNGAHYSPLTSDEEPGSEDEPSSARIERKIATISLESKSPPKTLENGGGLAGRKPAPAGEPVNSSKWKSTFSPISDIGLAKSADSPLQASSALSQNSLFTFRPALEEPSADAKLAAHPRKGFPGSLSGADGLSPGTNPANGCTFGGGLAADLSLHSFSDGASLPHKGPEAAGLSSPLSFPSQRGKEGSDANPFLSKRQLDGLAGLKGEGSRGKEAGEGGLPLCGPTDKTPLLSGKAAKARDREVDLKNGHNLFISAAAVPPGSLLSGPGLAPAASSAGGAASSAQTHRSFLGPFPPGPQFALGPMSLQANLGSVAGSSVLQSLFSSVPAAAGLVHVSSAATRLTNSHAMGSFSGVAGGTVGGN
Test [4] has as its target 5-hydroxytryptamine receptor 2B (Homo sapiens, UniProt P41595). Put plainly: Selectivity interaction (GPCR panel (PDSP screen)) EUB0000311b HTR2B. The following applies: at 10 µM.
For test [5], the target named is T2, Aurora kinase A (Homo sapiens) (UniProt O14965).
T2 sequence (whole entry): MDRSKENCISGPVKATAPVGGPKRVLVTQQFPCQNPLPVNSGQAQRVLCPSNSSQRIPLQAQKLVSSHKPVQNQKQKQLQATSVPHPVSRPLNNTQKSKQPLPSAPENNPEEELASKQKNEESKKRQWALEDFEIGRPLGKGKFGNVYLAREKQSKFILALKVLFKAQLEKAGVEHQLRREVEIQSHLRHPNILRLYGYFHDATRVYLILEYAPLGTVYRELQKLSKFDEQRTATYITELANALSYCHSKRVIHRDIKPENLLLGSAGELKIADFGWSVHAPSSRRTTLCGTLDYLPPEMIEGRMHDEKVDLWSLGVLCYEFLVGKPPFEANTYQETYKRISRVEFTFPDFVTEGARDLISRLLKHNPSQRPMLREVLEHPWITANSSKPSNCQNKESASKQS
Put plainly: Selectivity interaction (Kinase panel (literature)) EUB0001199aCl STK6. Particulars: at 1 µM.

Test [6] concerns the target Ribosomal protein S6 kinase alpha-1 (Homo sapiens, UniProt Q15418). Put plainly: Selectivity interaction (ActivX KiNativ screen (kinase selectivity in THP-1 cell lysates)) EUB0000639a RPS6KA1. It is filed as subcellular. The following applies: lysate, at 0.01 µM.
For test [7], the target named is Ribosomal protein S6 kinase alpha-3 (Homo sapiens, UniProt P51812). Description: Selectivity interaction (ActivX KiNativ screen (kinase selectivity in THP-1 cell lysates)) EUB0000639a RPS6KA3. It counts as subcellular. Particulars: lysate, at 0.04 µM.
Sequence of Ribosomal protein S6 kinase alpha-3 (P51812 whole entry, the tested form may be a part): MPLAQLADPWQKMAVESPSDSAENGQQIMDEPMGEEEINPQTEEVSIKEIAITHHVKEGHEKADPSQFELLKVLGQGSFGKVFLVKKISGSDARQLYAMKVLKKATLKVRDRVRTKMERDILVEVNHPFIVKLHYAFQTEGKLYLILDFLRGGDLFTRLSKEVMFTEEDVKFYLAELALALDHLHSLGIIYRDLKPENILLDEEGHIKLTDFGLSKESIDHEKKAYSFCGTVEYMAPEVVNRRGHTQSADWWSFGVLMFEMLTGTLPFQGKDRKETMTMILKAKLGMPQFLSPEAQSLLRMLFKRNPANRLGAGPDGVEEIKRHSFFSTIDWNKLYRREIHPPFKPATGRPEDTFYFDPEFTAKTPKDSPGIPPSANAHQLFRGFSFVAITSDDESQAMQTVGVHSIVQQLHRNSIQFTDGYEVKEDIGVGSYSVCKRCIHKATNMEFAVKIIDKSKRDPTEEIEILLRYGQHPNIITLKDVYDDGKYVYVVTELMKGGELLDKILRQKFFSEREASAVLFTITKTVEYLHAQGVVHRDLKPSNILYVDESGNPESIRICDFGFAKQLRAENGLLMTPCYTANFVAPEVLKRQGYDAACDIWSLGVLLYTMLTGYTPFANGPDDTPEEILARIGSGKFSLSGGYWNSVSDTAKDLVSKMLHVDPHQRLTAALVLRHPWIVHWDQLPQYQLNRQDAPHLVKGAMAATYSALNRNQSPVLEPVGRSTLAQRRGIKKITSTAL
Test [8] in a line: Selectivity interaction (PWWP, WD40, and Tudor domain panel (DSLS measurements, literature)) EUB0000270b SCML2.
In test [9] the target is RAC-gamma serine/threonine-protein kinase (Homo sapiens, UniProt Q9Y243). Description: Selectivity interaction (KinomeScan (DiscoverX)) EUB0000092b AKT3. Particulars: at 10 µM.
The target of test [10] is Protein kinase C eta type (Homo sapiens) (UniProt P24723). Put plainly: Selectivity interaction (KinomeScan (DiscoverX)) EUB0000595a PRKCH. The following applies: at 10 µM.
Sequence of Protein kinase C eta type (Homo sapiens) (P24723 whole entry): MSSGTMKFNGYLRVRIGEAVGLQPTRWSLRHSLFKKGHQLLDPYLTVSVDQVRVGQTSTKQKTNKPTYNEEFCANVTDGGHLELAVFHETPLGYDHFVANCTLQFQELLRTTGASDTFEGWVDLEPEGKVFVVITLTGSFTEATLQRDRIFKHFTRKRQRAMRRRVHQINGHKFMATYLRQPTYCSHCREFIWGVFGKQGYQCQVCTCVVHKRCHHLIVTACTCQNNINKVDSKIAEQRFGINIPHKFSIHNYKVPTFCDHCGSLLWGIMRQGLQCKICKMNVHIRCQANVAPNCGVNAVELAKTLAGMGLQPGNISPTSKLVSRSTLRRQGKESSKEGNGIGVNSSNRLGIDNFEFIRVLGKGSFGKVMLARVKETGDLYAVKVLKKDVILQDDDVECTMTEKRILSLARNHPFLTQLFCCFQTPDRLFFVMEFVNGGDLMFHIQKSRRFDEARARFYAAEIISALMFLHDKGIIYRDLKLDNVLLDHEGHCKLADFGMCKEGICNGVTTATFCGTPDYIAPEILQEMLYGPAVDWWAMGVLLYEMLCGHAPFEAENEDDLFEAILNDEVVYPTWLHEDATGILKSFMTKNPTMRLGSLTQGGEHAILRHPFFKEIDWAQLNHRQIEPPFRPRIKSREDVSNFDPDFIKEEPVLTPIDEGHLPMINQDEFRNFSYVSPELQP
Test [11] concerns the target Dual specificity protein kinase CLK3 (Homo sapiens, UniProt P49761). Particulars: at 10 µM.

Sequence of 5-hydroxytryptamine receptor 2B (P41595 whole entry): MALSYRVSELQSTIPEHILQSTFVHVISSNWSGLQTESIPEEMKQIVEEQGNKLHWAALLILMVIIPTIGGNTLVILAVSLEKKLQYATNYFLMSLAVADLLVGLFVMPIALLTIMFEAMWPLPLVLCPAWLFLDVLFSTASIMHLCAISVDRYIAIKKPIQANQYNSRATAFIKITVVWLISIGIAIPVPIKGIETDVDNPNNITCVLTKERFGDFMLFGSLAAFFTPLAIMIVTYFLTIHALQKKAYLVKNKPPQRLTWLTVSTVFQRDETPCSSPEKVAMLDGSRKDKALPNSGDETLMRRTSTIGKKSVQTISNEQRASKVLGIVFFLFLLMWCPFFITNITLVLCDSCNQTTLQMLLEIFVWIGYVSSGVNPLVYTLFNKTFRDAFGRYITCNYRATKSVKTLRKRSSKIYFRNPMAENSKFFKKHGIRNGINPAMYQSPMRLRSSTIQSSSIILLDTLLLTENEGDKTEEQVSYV
Sequence of Dual specificity protein kinase CLK3 (P49761 whole entry, looked up): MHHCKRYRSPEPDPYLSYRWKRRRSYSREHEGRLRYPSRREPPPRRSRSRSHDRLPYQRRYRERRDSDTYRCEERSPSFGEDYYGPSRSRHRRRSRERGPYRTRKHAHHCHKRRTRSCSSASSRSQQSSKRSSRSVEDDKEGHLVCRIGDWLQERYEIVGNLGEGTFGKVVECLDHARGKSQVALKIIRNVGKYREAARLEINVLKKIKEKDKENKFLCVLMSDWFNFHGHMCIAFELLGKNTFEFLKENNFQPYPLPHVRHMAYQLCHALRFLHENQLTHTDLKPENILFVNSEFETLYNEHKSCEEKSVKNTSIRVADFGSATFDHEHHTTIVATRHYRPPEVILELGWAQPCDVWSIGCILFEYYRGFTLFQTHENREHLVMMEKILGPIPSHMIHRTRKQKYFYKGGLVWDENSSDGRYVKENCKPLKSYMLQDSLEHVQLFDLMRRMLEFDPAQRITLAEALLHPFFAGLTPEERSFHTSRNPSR
Sequence of Ribosomal protein S6 kinase alpha-1 (Q15418 whole entry): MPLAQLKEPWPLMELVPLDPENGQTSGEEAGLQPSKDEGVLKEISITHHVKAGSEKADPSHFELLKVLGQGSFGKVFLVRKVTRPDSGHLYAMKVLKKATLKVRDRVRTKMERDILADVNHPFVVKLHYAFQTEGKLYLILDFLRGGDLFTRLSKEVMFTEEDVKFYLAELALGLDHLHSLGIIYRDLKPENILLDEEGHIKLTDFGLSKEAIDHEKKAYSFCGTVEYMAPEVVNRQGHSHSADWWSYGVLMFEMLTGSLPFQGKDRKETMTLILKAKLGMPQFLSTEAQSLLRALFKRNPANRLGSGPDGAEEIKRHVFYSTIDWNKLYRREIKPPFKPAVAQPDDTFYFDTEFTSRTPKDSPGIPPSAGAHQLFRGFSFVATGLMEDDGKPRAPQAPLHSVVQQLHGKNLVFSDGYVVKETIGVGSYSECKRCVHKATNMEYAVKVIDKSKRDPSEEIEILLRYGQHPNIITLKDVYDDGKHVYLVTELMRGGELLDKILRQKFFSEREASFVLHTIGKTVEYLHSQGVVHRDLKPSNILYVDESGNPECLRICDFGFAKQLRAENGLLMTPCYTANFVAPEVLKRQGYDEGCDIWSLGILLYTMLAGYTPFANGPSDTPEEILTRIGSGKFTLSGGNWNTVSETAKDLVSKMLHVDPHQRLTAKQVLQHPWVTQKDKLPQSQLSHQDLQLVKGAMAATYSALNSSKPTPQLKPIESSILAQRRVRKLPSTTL

Turning to `CNC(=O)Nc1ccc(-c2nc(N3CC4CCC(C3)O4)c3cnn(C4CCC5(CC4)OCCO5)c3n2)cc1`, the % of control in [1] stood at 22%.

`O=C(NOC[C@H](O)CO)c1ccc(F)c(F)c1Nc1ccc(I)cc1F` displayed a % of control in test [2] of 77%. Take `COCCN1CCC(c2cc(CN(C)C(=O)c3cccc(Oc4ccccc4)c3)ccn2)CC1`: the results for the % activity in test [3] (at 1 µM) and in test [3] (at 10 µM) were over 95% and over 90%, respectively.

Take `CCc1ccccc1C(=O)Nc1n[nH]c2c(C)c(F)c(C3C(C#N)=C(C)N(C)C(C)=C3C#N)cc12` [BAY-3827]: the % of inhibition in test [4] is 32.5%. For the compound `CN1Cc2nccc(-c3cn(C)nc3-c3ccc(F)cc3)c2C1=O`, in test [5], the % of inhibition is -4%. Consider `CC[C@@H]1[C@H](F)C(=O)N[C@@H]1COc1nccc2cc(C(N)=O)c(OC)cc12` [ZIMLOVISERTIB], for which the % of inhibition in test [6] was -8.3%; in test [7], -18.2%. As to `Cc1cc(CN)cc(C)c1-c1ncn(C)c1-c1cncn1C`, in test [8], the dTagg amounted to 0.2 K. Regarding `CCC(=O)N1CCN(c2ccc(-n3c(=O)ccc4cnc5ccc(-c6cnc7ccccc7c6)cc5c43)cc2C(F)(F)F)CC1`, the % of control in test [9] was determined as 77%. As to `COCC(=O)NC/C=C/c1ccc2ncnc(Nc3ccc(Oc4ccc(C)nc4)c(C)c3)c2c1` [CP-724714], the % of control in [10] and in test [11] was 100% in each case.
